Values quoted from earlier work as cited in patent US7276641B2, “External plaster containing 4-biphenylacetic acid” (Teikoku Seiyaku Co., Ltd., priority 2000, dated 2007).
Where two headings read alike, the source gives them in different places.

solubility (aqueous plaster with diisopropanolamine as solubilizer): not more than 11%
solubility (crotamiton as solubilizer): at most 7%
solubility (in acetone, ethanol, glacial acetic acid, and ether): less soluble
solubility (in dimethylacetamide): readily soluble
solubility (in polyols, glycols, and esters): hardly soluble
solubility (in water): hardly soluble
SMILES: O=C(O)Cc1ccc(-c2ccccc2)cc1 [BPAA, 4-biphenylyl acetic acid]
